Two compounds from patent publication US7892778B2, “Method of screening for gamma-secretase activity” (Sanofi-Aventis Deutschland GmbH, priority 2003, dated 2011) can be followed below.

What all share (format): cell-based, human
Assay [1] concerns γ-secretase. As to the kind of experiment: Transiently transfected HEK293 cells (SP3-C55-GAL4/VP16 + pGL2-MRG5 luciferase reporter), luciferase activity. To be noted: HEK293 transiently co-transfected with SP3-C55-GAL4/VP16 vector and pGL2-MRG5 luciferase reporter vector; read-out: IC50, inhibition of luciferase activity and Aβ-production. As to the method: (§1) HEK293 cells were co-transfected with the SP3-C55-GAL4/VP16 vector (0.03 μg) and the pGL2-MRG5 luciferase reporter vector (1 μg) in Multi-Well 12 plates.
(§2) Luciferase activity was quantified by the Bright-Glo Luciferase Assay kit (Promega). Aβ in the cell medium was quantified by ELISA, using the antibodies 4G8 and 6E10 (from Senetek), as described in Example 11. These antibodies are specific for amino acids 17-24 (4G8) and 1-17 (6E10) of the Aβ-peptide.

Assay [2] relates to γ-secretase. Kind of assay: Transiently transfected HEK293 cells, Aβ in the cell medium by ELISA (4G8/6E10). Particulars: HEK293 transiently co-transfected; Aβ in cell medium quantified by ELISA.
Excerpt: For expression in mammalian cells, the signal peptide in SP2-C-GAL4/VP16-100 was replaced, as described in Example 8, with a mammalian signal peptide derived from the basal membrane protein BM40, which is known for high level expression (SP3; SEQ ID NO. 13). Processing of γ-secretase was monitored by quantifying the secretion of Aβ into the culture medium. The secreted Aβ was detected by a sandwich ELISA using monoclonal antibodies 6E10 and biotinylated 4G8 (Senetek PLC, Napa, Calif., USA; cf. Kim et al., 1990) as capture and detection antibodies, respectively.
as §1, §2

Assay [3] has as its system γ-secretase. Kind of assay: Stably transfected HEK293 cell clone (SP3-C55-GAL4/VP16 + MRG5-luciferase), luciferase activity. To be noted: stably double-transfected HEK293 clone, 24 h treatment; read-out: IC50, inhibition of luciferase activity. As to the method:
HEK293 cells (Human Embryonic Kidney cell line, (ATCC)) were co-transfected with the plasmid SP3-C55-GAL4/VP16 and the luciferase reporter plasmid PGL2-MRG5(described in Example 2).
Subsequently, stable cell lines were selected by incubation with 400 μg/ml Geneticin (GibcoBRL) to select for Neomycin resistant clones and thereafter characterized for stable expression of SP3-C55-GAL4/VP16 and luciferase.
A clone of HEK293 cells that stably express both the SP3-C55-GAL4/VP16 and the MRG5-luciferase constructs was identified according to Example 14.
For the identification of γ-secretase inhibitors, stably double-transfected HEK293 cells (see Example 14) are incubated, in Multi-Well 96 plates, in the presence of the compound(s) under investigation (e.g., compound library screening) at a concentration 10 μM or less in the assay, and luciferase activity is determined 24 hours later. Luciferase activity can be quantified with the Luciferase Assay System kit (Promega), the Bright-Glo Luciferase Assay kit (Promega), or any other method for luciferase quantification. A decrease in luciferase activity reflects a decrease in γ-secretase activity.

Regarding `C[C@H](NC(=O)Cc1cc(F)cc(F)c1)C(=O)N[C@H](C(=O)OC(C)(C)C)c1ccccc1` [DAPT], the results for the IC50 in the assay on γ-secretase [1] and in the assay on γ-secretase [3] were 14 nM and 230 nM, respectively. For the same compound, in the assay with γ-secretase [2], the Aβ-production result is given as “inhibited dose-dependently”.

Take `CC(C)C[C@H](NC(=O)[C@H](Cc1ccccc1)C[C@@H](O)[C@H](Cc1ccccc1)NC(=O)OC(C)(C)C)C(=O)N[C@@H](Cc1ccccc1)C(N)=O` [L-685,458]: the IC50 (in general, the concentration that gives 50% inhibition) was 19 nM in the assay on γ-secretase [1] and 130 nM with γ-secretase [3]. In addition, in the assay with γ-secretase [2], the Aβ-production entry is “inhibited dose-dependently”.
